Source: publication PMC11379888 (Nature Communications, 2024)
In brackets after ≈: the same amount, converted by molar mass. Read-outs that look alike come from different tables or passages of the source.

Experiments:
[1] = system: Pdr5-deficient S. cerevisiae (empty vector); assay: microbe, parasite or virus in culture; format: cell-based; details: Saccharomyces cerevisiae, 48 h, read-out: IC50 (fluconazole-sensitivity, OD600nm)
[2] = system: C. albicans Cdr1 overexpressed in Pdr5-deficient S. cerevisiae; assay: organism not typed; format: cell-based; details: 48 h, read-out: IC50 (fluconazole-sensitivity, OD600nm)
purified Cdr1 = purified Cdr1 (Candida albicans, UniProt Q5ANA3); assay: ATPase activity assay; format: biochemical, C. albicans; details: drug ten times Cdr1 concentration (4 μM vs 0.4 μM), GDN, relative to DMSO
Cdr1 fused with EGFP = Cdr1 fused with EGFP (Candida albicans, UniProt Q5ANA3); assay: Microscale thermophoresis; format: binding, C. albicans
C. albicans Cdr1 = details: cited from earlier work
C. albicans Cdr2 = details: cited from earlier work
[3] = system: Cdr1 overexpressed in Pdr5-knocked-out S. cerevisiae; format: cell-based
[4] = system: azole-resistant clinical C. albicans isolates; details: cited from earlier work

Chain of purified Cdr1 (Q5ANA3 whole entry, the tested form may be a part): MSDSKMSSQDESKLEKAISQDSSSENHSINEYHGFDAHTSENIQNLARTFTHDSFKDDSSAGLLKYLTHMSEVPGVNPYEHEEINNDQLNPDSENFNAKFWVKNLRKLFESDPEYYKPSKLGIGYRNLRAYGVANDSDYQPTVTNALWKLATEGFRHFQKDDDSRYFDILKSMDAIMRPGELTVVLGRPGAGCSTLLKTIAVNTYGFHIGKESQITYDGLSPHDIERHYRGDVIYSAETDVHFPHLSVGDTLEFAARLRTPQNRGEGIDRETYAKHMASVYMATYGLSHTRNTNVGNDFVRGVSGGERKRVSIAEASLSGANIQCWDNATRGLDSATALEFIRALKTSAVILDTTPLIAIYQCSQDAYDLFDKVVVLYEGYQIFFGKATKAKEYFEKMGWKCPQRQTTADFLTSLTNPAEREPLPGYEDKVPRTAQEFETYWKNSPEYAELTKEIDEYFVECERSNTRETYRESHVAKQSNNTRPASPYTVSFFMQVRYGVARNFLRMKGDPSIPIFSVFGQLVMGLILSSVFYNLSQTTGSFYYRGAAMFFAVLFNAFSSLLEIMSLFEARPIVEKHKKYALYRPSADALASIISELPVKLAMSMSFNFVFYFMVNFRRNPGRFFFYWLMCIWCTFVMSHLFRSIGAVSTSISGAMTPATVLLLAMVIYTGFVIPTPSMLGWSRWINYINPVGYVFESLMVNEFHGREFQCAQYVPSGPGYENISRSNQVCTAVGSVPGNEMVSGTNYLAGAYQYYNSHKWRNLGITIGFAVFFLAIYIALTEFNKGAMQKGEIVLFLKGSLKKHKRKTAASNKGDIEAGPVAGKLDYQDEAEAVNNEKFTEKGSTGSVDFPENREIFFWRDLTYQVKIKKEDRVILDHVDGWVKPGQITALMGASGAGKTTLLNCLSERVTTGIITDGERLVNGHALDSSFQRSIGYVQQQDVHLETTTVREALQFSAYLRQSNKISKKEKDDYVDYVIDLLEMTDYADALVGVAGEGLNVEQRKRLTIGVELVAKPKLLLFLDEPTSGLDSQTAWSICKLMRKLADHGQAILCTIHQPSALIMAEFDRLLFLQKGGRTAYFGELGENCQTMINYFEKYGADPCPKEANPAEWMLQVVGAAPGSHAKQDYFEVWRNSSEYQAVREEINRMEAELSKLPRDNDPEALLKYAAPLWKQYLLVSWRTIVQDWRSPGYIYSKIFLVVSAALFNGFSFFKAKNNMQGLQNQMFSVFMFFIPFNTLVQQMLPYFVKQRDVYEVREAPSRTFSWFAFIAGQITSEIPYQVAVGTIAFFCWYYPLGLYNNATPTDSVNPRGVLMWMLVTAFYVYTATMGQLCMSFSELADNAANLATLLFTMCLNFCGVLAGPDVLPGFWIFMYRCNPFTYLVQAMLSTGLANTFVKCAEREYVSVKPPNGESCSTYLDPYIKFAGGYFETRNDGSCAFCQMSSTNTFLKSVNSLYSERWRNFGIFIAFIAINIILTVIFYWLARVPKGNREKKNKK
Chain of Cdr1 fused with EGFP (Q5ANA3 whole entry, the tested form may be a part): as above

| Compound | IC50 [1] | IC50 [2] | ATP hydrolysis (relative ATPase activity, mean) (purified Cdr1) | Kd (Cdr1 fused with EGFP) | inhibition of Cdr1 (C. albicans Cdr1) | inhibition of Cdr2 (C. albicans Cdr2) | selectivity of inhibition Cdr1 vs Pdr5 ([3]; […], 1 μg/mL fluconazole, 0.1 μg/mL milbemycin oxime) | IC50 (milbemycin oxime-sensitivity, OD600nM) ([3]; with 1 µg/mL fluconazole) | IC50 (milbemycin oxime-sensitivity, OD600nM) ([3]; with 10 µg/mL fluconazole) | Kd (Cdr1 fused with EGFP; read-out: dissociation constant (Kd), 100 nM Cdr1, PBS 0.02% DDM, 25 °C) | synergy with fluconazole [4] |
| --- | --- | --- | --- | --- | --- | --- | --- | --- | --- | --- | --- |
| OC(Cn1cncn1)(Cn1cncn1)c1ccc(F)cc1F [fluconazole] | 0.31 µg/mL (≈ 1.01 µM) | 56.6 µg/mL (≈ 185 µM) | decreases slightly | 61.4 µM |  |  |  |  |  |  |  |
| milbemycin α25 |  |  |  |  | potent inhibition | potent inhibition |  |  |  |  |  |
| milbemycin oxime |  |  | 25.7% |  |  |  | selectively inhibits Cdr1 rather than Pdr5 | 0.034 µg/mL | 0.009 µg/mL | 0.147 µM | strong synergistic effects with fluconazole |
